Like-named read-outs stand apart in the source and are kept apart here.
Columns and labels:
Assay type in all cases: biochemical
MMP-14h = MMP-14h (Homo sapiens (Human), UniProt P50281); assay: Inhibition constant (Ki) on MMP-14h; conditions: for Selectivity factor/MMP12, MMP-14h: Ki MMP-14h/Ki MMP-12
Method in brief: (§1)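 Readout is Ki, obtained with a literature enzymatic protocol; all enzymes tested were human.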

MMP-9h = MMP-9h (Homo sapiens (Human), UniProt P14780); assay: Inhibition constant (Ki) on MMP-9h; conditions: for Selectivity factor/MMP12, MMP-9h: Ki MMP-9h/Ki MMP-12
Method in brief: as §1

MMP-10h = MMP-10h (Homo sapiens (Human), UniProt P09238); assay: Inhibition constant (Ki) on MMP-10h; conditions: for Selectivity factor/MMP12, MMP-10h: Ki MMP-10h/Ki MMP-12
MMP-1h = MMP-1h (Homo sapiens (Human), UniProt P03956); assay: Inhibition constant (Ki) on MMP-1h; conditions: for Selectivity factor/MMP12, MMP-1h: Ki MMP-1h/Ki MMP-12
From the text: (§2) The inhibition constant Ki of these compounds has been determined according to the protocol described by Devel et al, 2006, J. Biol. Chem. (7).
(§3) In this table I and also in table II below, “h” corresponds to human. All of the compounds have therefore been evaluated on human MMPs.

MMP-7h = MMP-7h (Homo sapiens (Human), UniProt P09237); assay: Inhibition constant (Ki) on MMP-7h; conditions: for Selectivity factor/MMP12, MMP-7h: Ki MMP-7h/Ki MMP-12
From the text: as §2, §3

MMP-8h = MMP-8h (Homo sapiens (Human), UniProt P22894); assay: Inhibition constant (Ki) on MMP-8h; conditions: for Selectivity factor/MMP12, MMP-8h: Ki MMP-8h/Ki MMP-12
MMP-2h = MMP-2h (Homo sapiens (Human), UniProt P08253); assay: Inhibition constant (Ki) on MMP-2h; conditions: for Selectivity factor/MMP12, MMP-2h: Ki MMP-2h/Ki MMP-12
Method in brief: as §1

MMP-13h = MMP-13h (Homo sapiens (Human), UniProt P45452); assay: Inhibition constant (Ki) on MMP-13h; conditions: for Selectivity factor/MMP12, MMP-13h: Ki MMP-13h/Ki MMP-12
Method in brief: as §1

MMP-3h = MMP-3h (Homo sapiens (Human), UniProt P08254); assay: Inhibition constant (Ki) on MMP-3h; conditions: for Selectivity factor/MMP12, MMP-3h: Ki MMP-3h/Ki MMP-12
Method in brief: as §1

MMP-12h = MMP-12h (Homo sapiens (Human), UniProt P39900); assay: Inhibition constant (Ki) on MMP-12h; conditions: for Selectivity factor/MMP12, MMP-12h: Ki MMP-12h/Ki MMP-12
human MMPs = assay: Inhibition of the panel of human MMPs (overall statements, selectivity); conditions: for selectivity factor F = Ki MMP-x/Ki MMP-12: other human MMPs versus MMP-12; for inhibitory activity toward MMPs (in words): summary of table I
[1] = read-out: Ki MMP-14h, human MMP-14
[2] = read-out: Ki MMP-9h, human MMP-9
[3] = read-out: Ki MMP-10h, human MMP-10
[4] = read-out: Ki MMP-1h, human MMP-1
[5] = read-out: Ki MMP-7h, human MMP-7
[6] = read-out: Ki MMP-8h, human MMP-8
[7] = read-out: Ki MMP-2h, human MMP-2
[8] = read-out: Ki MMP-13h, human MMP-13
[9] = read-out: Ki MMP-3h, human MMP-3
[10] = read-out: Ki MMP-12h, human MMP-12

Sequence of MMP-9h (P14780 94-707): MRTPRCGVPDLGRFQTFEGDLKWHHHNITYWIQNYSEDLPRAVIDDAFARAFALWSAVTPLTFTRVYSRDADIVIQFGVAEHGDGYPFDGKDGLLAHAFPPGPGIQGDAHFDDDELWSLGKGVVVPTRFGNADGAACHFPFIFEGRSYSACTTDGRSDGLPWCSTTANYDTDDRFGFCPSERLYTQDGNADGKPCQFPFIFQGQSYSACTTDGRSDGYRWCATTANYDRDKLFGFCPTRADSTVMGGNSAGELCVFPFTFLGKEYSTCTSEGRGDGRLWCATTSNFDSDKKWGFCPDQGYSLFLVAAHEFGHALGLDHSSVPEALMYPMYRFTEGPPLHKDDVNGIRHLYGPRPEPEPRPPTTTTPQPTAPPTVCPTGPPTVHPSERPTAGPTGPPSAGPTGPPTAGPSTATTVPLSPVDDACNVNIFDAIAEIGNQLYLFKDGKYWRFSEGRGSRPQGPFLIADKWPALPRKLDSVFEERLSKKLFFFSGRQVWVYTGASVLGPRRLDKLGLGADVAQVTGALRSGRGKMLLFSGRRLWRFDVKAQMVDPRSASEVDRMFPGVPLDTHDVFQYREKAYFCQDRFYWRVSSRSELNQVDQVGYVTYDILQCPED
Sequence of MMP-3h (P08254 100-477): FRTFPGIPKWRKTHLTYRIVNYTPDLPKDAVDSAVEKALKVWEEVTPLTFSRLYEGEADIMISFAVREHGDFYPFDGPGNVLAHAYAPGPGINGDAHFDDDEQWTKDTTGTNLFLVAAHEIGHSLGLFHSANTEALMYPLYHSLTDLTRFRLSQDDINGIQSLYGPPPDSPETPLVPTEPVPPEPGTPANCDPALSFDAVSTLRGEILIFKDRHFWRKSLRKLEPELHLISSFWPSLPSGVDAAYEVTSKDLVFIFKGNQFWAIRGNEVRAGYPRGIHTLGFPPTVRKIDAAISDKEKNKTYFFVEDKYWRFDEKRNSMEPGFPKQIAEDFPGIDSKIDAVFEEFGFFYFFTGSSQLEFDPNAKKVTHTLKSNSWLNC
Sequence of MMP-2h (P08253 110-660): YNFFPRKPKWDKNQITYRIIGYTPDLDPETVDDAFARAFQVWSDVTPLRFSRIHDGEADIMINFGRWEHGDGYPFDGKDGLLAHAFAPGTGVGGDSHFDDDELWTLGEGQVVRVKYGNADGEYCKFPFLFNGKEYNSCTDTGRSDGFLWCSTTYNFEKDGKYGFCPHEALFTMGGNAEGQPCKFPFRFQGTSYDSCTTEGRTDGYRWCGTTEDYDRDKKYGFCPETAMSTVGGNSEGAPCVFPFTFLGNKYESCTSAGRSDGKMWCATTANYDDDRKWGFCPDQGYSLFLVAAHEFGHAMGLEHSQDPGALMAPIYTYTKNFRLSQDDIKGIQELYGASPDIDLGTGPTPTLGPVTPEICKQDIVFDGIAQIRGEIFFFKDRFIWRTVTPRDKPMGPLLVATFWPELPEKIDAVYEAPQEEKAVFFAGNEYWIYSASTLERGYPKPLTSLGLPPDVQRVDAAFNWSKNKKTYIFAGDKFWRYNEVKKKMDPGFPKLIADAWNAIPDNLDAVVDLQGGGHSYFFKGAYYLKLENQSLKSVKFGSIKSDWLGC
Sequence of MMP-12h (P39900 106-470): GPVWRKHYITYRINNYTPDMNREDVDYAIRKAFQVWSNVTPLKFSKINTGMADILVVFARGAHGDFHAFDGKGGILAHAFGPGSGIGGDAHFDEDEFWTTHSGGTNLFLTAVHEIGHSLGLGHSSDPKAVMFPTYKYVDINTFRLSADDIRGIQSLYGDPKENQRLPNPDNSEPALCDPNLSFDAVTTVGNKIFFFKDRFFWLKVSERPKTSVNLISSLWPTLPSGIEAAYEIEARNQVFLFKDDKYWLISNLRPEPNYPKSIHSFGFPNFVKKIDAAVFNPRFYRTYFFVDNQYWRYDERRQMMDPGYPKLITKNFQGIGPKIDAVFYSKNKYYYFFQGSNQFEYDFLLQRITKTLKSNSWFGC
Sequence of MMP-7h (P09237 95-267): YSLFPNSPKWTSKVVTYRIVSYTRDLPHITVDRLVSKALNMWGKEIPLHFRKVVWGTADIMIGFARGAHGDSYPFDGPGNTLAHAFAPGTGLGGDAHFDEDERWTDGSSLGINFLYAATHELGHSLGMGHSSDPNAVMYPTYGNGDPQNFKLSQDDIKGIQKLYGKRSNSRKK
Sequence of MMP-1h (P03956 100-469): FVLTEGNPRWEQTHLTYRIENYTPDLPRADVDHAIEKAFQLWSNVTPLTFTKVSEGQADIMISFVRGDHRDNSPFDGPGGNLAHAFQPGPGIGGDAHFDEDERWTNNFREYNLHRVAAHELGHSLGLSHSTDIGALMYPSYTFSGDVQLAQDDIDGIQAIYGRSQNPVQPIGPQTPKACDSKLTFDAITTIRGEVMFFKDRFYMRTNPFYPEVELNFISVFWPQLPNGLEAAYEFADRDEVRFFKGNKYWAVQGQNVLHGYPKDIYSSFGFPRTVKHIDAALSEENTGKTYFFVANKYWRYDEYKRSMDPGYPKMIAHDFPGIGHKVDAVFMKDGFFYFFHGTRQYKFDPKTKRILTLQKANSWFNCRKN
Sequence of MMP-10h (P09238 99-476): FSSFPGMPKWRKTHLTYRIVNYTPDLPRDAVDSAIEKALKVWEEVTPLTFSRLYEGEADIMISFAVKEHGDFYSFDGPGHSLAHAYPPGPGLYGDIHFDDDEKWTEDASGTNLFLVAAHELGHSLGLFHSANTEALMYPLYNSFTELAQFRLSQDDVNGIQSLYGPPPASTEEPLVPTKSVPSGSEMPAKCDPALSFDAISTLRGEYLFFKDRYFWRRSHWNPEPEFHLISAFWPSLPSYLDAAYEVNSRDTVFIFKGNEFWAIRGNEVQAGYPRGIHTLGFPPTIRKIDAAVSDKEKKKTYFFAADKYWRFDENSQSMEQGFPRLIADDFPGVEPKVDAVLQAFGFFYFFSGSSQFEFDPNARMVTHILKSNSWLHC
Sequence of MMP-8h (P22894 101-467): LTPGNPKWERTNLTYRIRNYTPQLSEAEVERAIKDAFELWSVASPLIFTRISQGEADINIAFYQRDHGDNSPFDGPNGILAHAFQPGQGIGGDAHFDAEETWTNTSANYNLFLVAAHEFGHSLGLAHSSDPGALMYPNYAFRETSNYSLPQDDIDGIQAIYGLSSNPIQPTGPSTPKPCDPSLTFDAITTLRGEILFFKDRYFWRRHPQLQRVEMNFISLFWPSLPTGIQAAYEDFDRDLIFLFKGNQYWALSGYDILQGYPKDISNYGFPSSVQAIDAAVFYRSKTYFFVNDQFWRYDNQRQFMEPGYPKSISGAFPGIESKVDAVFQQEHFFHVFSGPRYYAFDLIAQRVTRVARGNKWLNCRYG

SMILES	Ki (MMP-14h; [1])	Ki (MMP-9h; [2])	Ki (MMP-10h; [3])	Ki (MMP-1h; [4])	Ki (MMP-7h; [5])	Ki (MMP-8h; [6])	Ki (MMP-2h; [7])	Ki (MMP-13h; [8])	Ki (MMP-3h; [9])	Ki (MMP-12h; [10])	inhibitory activity toward MMPs (in words) (human MMPs)	also measured
NC(=O)[C@H](CCC(=O)O)NC(=O)[C@H](CCC(=O)O)NC(=O)CCc1ccc(-c2ccc(-c3ccccc3)cc2)cc1 [Compound 61, (S)-5-amino-4-((S)-4-carboxy-2-(3-(4′-phenylbiphenyl-4-yl)propanamido)butanamido)-5-oxopentanoic acid]	> 1000 nM	> 1000 nM	76 nM	> 5000 nM	502 nM	132 nM	53 nM	20 nM	74 nM	1.63 nM	–	–
NC(=O)[C@H](CCC(=O)O)NC(=O)[C@H](CCC(=O)O)NC(=O)CCc1cc(-c2ccccc2)no1 [Compound 14, (S)-5-amino-4-((S)-4-carboxy-2-(3-(3-phenylisoxazol-5-yl)propanamido)butanamido)-5-oxopentanoic acid]	> 1000 nM	> 1000 nM	> 1000 nM	> 10000 nM	> 10000 nM	112 nM	756 nM	> 1000 nM	> 10000 nM	–	–	–
N=c1ccc2c(-c3cc(C(=O)NCCCOCCOCCOCCCNC(=O)[C@H](CCC(=O)O)NC(=O)[C@H](CCC(=O)O)NC(=O)CCc4ccc(-c5cc(-c6ccccc6)cs5)cc4)ccc3C(=O)O)c3ccc(N)c(S(=O)(=O)O)c3oc-2c1S(=O)(=O)O [Compound 108]	–	–	–	–	–	–	–	–	–	–	–	Ki (MMP-14h): > 10000 nM; Selectivity factor/MMP12, MMP-14h (MMP-14h): 670; Ki (MMP-9h): > 5000 nM; Selectivity factor/MMP12, MMP-9h (MMP-9h): 333; Ki (MMP-10h): 833 nM; Selectivity factor/MMP12, MMP-10h (MMP-10h): 55; Ki (MMP-1h): > 10000 nM; Selectivity factor/MMP12, MMP-1h (MMP-1h): 670; Ki (MMP-7h): > 10000 nM; Selectivity factor/MMP12, MMP-7h (MMP-7h): 670; Ki (MMP-8h): > 2500 nM; Selectivity factor/MMP12, MMP-8h (MMP-8h): 170; Ki (MMP-2h): > 2500 nM; Selectivity factor/MMP12, MMP-2h (MMP-2h): 170; Ki (MMP-13h): > 1000 nM; Selectivity factor/MMP12, MMP-13h (MMP-13h): 66; Ki (MMP-3h): > 10000 nM; Selectivity factor/MMP12, MMP-3h (MMP-3h): 670; Ki (MMP-12h): 15 nM; Selectivity factor/MMP12, MMP-12h (MMP-12h): 1
NC(=O)CC[C@H](NC(=O)[C@H](CCC(=O)O)NC(=O)CCc1ccc(-c2cc(-c3ccccc3)cs2)cc1)C(N)=O [Compound 99, (S)-5-((S)-1,5-diamino-1,5-dioxopentan-2-ylamino)-5-oxo-4-(3-(4-(4-phenylthiophen-2-yl)phenyl)propanamido)pentanoic acid]	> 1000 nM	> 5000 nM	> 1000 nM	> 10000 nM	> 10000 nM	> 1000 nM	> 1000 nM	522 nM	> 10000 nM	5.4 nM	–	selectivity factor F = Ki MMP-x/Ki MMP-12 (human MMPs): > 100
NC(=O)[C@H](CCC(=O)O)NC(=O)[C@H](CCC(=O)O)NC(=O)[C@@H](CC(=O)O)Cc1ccc(-c2cc(-c3ccccc3)cs2)cc1 [95 bis, (S)-5-amino-4-((S)-4-carboxy-2-((R)-3-carboxy-2-(4-(4-phenylthiophen-2-yl)benzyl)propanamido)butanamido)-5-oxopentanoic acid]	118 nM	> 1000 nM	80 nM	> 1000 nM	> 1000 nM	520 nM	401 nM	198 nM	579 nM	0.3 nM	–	Selectivity factor/MMP12, MMP-14h (MMP-14h): 395; Selectivity factor/MMP12, MMP-9h (MMP-9h): 3333; Selectivity factor/MMP12, MMP-10h (MMP-10h): 270; Selectivity factor/MMP12, MMP-1h (MMP-1h): 3333; Selectivity factor/MMP12, MMP-7h (MMP-7h): 3333; Selectivity factor/MMP12, MMP-8h (MMP-8h): 1730; Selectivity factor/MMP12, MMP-2h (MMP-2h): 1340; Selectivity factor/MMP12, MMP-13h (MMP-13h): 660; Selectivity factor/MMP12, MMP-3h (MMP-3h): 1930; selectivity factor F = Ki MMP-x/Ki MMP-12 (human MMPs): > 100; improvement of affinity with respect to MMP-12 compared with compound 95 (factor) (MMP-12h): 6; Selectivity factor/MMP12, MMP-12h (MMP-12h): 1
NC(=O)[C@H](CCC(=O)O)NC(=O)[C@H](CCC(=O)O)NC(=O)CCc1cc(-c2ccc(-c3cccc(Cl)c3)cc2)no1 [Compound 3, (S)-5-amino-4-((S)-4-carboxy-2-(3-(3-(3′-chlorobiphenyl-4-yl)isoxazol-5-yl)propanamido)butanamido)-5-oxopentanoic acid]	> 1000 nM	565 nM	47 nM	> 10000 nM	> 1000 nM	181 nM	76 nM	40 nM	62 nM	–	quite a powerful inhibitor of MMPs 2, 3, 10, 12 and 13	–
O=C(O)CC[C@H](NC(=O)CCc1ccc(-c2cc(-c3ccccc3)cs2)cc1)C(=O)Nc1cccc(CC(=O)O)c1 [Compound 106, (S)-5-(3-(carboxymethyl)phenylamino)-5-oxo-4-(3-(4-(4-phenylthiophen-2-yl)phenyl)propanamido)pentanoic acid]	> 1000 nM	396 nM	318 nM	> 1000 nM	> 1000 nM	675 nM	339 nM	132 nM	791 nM	4.3 nM	–	–
NC(=O)[C@H](CCC(=O)O)NC(=O)[C@H](CCC(=O)O)NC(=O)CCc1cn(-c2ccccc2)nn1 [Compound 24, (S)-5-amino-4-((S)-4-carboxy-2-(3-(1-phenyl-1H-1,2,3-triazol-4-yl)propanamido)butanamido)-5-oxopentanoic acid]	> 5000 nM	> 1000 nM	> 1000 nM	–	–	> 1000 nM	> 5000 nM	> 5000 nM	> 1000 nM	> 1000 nM	do not have any inhibitory activity	–
NC(=O)[C@H](CCC(=O)O)NC(=O)[C@H](CCC(=O)O)NC(=O)CCc1ccc(-c2cccs2)cc1 [Compound 80, (S)-5-amino-4-((S)-4-carboxy-2-(3-(4-(thiophen-2-yl)phenyl)propanamido)butanamido)-5-oxopentanoic acid]	> 1000 nM	> 1000 nM	373 nM	> 100000 nM	> 1000 nM	40 nM	142 nM	321 nM	> 1000 nM	8.6 nM	–	–
NC(=O)[C@H](CCC(=O)O)NC(=O)[C@H](CCC(=O)O)NC(=O)CCc1csc(-c2ccccc2)n1 [Compound 27, (S)-5-amino-4-((S)-4-carboxy-2-(3-(2-phenylthiazol-4-yl)propanamido)butanamido)-5-oxopentanoic acid]	> 5000 nM	> 5000 nM	> 5000 nM	–	–	> 1000 nM	> 1000 nM	900 nM	> 1000 nM	> 5000 nM	do not have any inhibitory activity	–
NC(=O)[C@H](CCC(=O)O)NC(=O)[C@H](CCC(=O)O)NC(=O)CCc1noc(-c2ccccc2)n1 [Compound 26, (S)-5-amino-4-((S)-4-carboxy-2-(3-(5-phenyl-1,2,4-oxadiazol-3-yl)propanamido)butanamido)-5-oxopentanoic acid]	> 5000 nM	> 1000 nM	> 5000 nM	–	–	> 5000 nM	> 5000 nM	> 1000 nM	> 5000 nM	> 1000 nM	do not have any inhibitory activity	–
NC(=O)[C@H](CCC(=O)O)NC(=O)CCc1ccc(-c2cc(-c3ccccc3)cs2)cc1 [Compound 105, (S)-5-amino-5-oxo-4-(3-(4-(4-phenylthiophen-2-yl)phenyl)propanamido)pentanoic acid]	> 1000 nM	> 1000 nM	> 1000 nM	> 10000 nM	> 10000 nM	–	377 nM	603 nM	> 1000 nM	3.65 nM	–	–
NC(=O)[C@H](CCC(=O)O)NC(=O)[C@H](CCC(=O)O)NC(=O)CCc1cc(-c2ccccc2)on1 [Compound 25, (S)-5-amino-4-((S)-4-carboxy-2-(3-(5-phenylisoxazol-3-yl)propanamido)butanamido)-5-oxopentanoic acid]	> 1000 nM	> 5000 nM	> 1000 nM	–	–	332 nM	> 1000 nM	550 nM	> 5000 nM	160 nM	MMP inhibitors	–
NC(=O)[C@H](CCC(=O)O)NC(=O)[C@H](CCC(=O)O)NC(=O)CCc1ccc(-c2ccc(-c3ccccc3)s2)cc1 [Compound 92, (S)-5-amino-4-((S)-4-carboxy-2-(3-(4-(5-phenylthiophen-2-yl)phenyl)propanamido)butanamido)-5-oxopentanoic acid]	> 1000 nM	874 nM	156 nM	–	–	381 nM	279 nM	200 nM	108 nM	2.58 nM	–	–
